Assay results: ChEMBL document CHEMBL5143608, “Peptide-based long-acting co-agonists of GLP-1 and cholecystokinin 1 receptors as novel anti-diabesity agents” (Eur J Med Chem, 2022)
Where a SMILES comes first, the peptide text is derived from it. [ ]: non-standard residue; d: D form. ξ: configuration not given here. ξpGlu = O=C1CCC(C(=O)O)N1

Columns and labels:
[1] = molecular target: T1, Gastrin/cholecystokinin type B receptor (Homo sapiens, UniProt P32239); test: Agonist activity at human CCK2R expressed in HEK293 cells assessed as ERK1/2 phosphorylation incubated for 5 mins by AlphaScreen assay; type: functional, cell-based
T1 sequence (P32239 whole entry): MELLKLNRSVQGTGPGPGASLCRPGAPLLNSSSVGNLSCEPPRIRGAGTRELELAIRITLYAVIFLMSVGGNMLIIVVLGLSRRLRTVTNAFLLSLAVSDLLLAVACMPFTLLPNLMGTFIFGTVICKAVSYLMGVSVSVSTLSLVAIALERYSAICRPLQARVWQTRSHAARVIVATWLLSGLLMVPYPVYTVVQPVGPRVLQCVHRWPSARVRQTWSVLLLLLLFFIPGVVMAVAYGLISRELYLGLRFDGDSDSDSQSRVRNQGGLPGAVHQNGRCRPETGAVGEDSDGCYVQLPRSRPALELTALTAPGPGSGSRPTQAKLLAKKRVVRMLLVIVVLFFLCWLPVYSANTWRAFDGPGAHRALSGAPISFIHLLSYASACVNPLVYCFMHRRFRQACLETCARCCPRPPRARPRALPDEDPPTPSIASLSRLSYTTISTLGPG

[2] = molecular target: T2, Cholecystokinin receptor type A (Homo sapiens, UniProt P32238); test: Agonist activity at human CCK1R expressed in HEK293 cells assessed as ERK1/2 phosphorylation incubated for 5 mins by AlphaScreen assay; type: functional, cell-based
T2 sequence (P32238 whole entry): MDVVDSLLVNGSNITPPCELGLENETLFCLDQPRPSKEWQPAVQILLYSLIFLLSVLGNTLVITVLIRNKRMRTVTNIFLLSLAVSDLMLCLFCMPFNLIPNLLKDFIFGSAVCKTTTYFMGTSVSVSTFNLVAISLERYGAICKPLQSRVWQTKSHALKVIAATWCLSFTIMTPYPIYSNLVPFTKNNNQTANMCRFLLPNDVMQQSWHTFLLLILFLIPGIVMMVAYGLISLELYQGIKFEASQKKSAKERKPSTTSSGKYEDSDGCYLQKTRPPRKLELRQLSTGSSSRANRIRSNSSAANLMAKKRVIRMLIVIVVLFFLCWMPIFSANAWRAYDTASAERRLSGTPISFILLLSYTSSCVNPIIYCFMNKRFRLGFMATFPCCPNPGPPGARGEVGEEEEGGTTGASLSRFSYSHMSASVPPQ

In the case of `CC(C)C[C@H](NC(=O)[C@H](Cc1c[nH]c2ccccc12)NC(=O)CNC(=O)[C@H](Cc1ccc(O)cc1)NC(=O)[C@H](C)NC(=O)[C@H](CCC(=O)O)NC(=O)[C@H](CCC(=O)O)NC(=O)[C@H](CCC(=O)O)NC(=O)[C@H](CCC(=O)O)NC(=O)[C@H](CCC(=O)O)NC(=O)[C@H](CC(C)C)NC(=O)[C@H](Cc1c[nH]c2ccccc12)NC(=O)[C@@H]1CCCN1C(=O)CNC(=O)C1CCC(=O)N1)C(=O)N[C@@H](CC(=O)O)C(=O)N[C@@H](Cc1ccccc1)C(N)=O` (some centres not stated) ([ξpGlu]GPWLEEEEEAYGWLDF-NH2), the EC50 [1] is reported as 2.4 nM and the EC50 [2] is reported as > 100 nM.
